Entries after “also recorded” stand apart in the source; their conditions may differ.
How the values were obtained:
[1] = test system: L. lactis 481; assay type: cell-based, Lactococcus lactis; conditions: for combined with CylLL″ MIC: concentration of each component; for combined with CylLL″ MIC / individual MIC: L. lactis 481; for individual MIC: peptide alone
[2] = test system: Lactococcus lactis HP and L. lactis CNRZ 481; experiment: Antimicrobial activity assay; assay type: cell-based; conditions: in combination with CylLL″; Figures S2, S5
[3] = test system: rabbit red blood cells; experiment: Synergistic hemolytic activity in combination with CylLL″; assay type: cell-based; conditions: Figure S6

Substance | combined with CylLL″ MIC ([1]; combined with CylLL″) [µM] | individual MIC [1] [µM] | antimicrobial activity (in words) [2] | fold increase of MIC in liquid culture ([1]; combined with CylLL″, liquid culture) [fold] | hemolytic activity (in words) [3]
CylLS″-Dhb2Dha (LL-A ring, DL-B ring) [synthetic 12] | 0.1 | >50 | identical antimicrobial activity |  | 
CylLS″-Dhb2Dha (DL-A ring, DL-B ring) [compound 11] | 1.0 | >50 | decreased antimicrobial activity; also recorded: markedly smaller zone of growth inhibition | 10 | no decrease of hemolytic activity
cytolysin L [CylLL″, reference compound] |  | >50 |  |  | 
CylLS″-Dhb2Dha [biosynthetic 12] | 0.1 | >50 | very similar antimicrobial activity |  | very similar hemolytic activity
cytolysin S [CylLS″, reference compound] | 0.05 | >50 |  |  | very similar hemolytic activity

Source: publication PMC5269379 (Organic letters, 2016)
